These results are taken from paper PMC6981581, “N-(2-Arylmethylthio-4-Chloro-5-Methylbenzenesulfonyl)amide Derivatives as Potential Antimicrobial Agents—Synthesis and Biological Studies” (International Journal of Molecular Sciences, 2019).

What all share (type): cell-based
In test [1] the test system is Enterococcus faecalis ATCC 11420. The test is described as follows: Broth dilution MIC/MBC, reference strain. As to conditions: for MBC / MIC: Enterococcus faecalis, ATCC11420. How it is done: (§1) The tests were carried out using a serial dilution method, allowing the determination of MIC (minimal concentration inhibiting bacterial growth), MBC (minimal bactericidal concentration), and MFC (minimal fungicidal concentration) values.
(§2) Antimicrobial activity was tested using the following reference strains: Staphylococcus aureus ATCC 6538 (MSSA), Staphylococcus aureus ATCC 43300 (MRSA), Staphylococcus epidermidis PCM 2118, Escherichia coli ATCC 11229, Pseudomonas aeruginosa ATCC 15442, Proteus vulgaris NCTC 4635, Enterococcus faecalis ATCC 11420, and Candida albicans ATCC 10231.
(§3) A broth dilution method was used to determine minimal inhibitory concentration (MIC) for tested compounds as recommended by Clinical Laboratory Standards Institute (CLSI) guidelines. Investigated compounds were diluted in Mueller Hinton Broth 2 (Sigma-Aldrich Co., St. Louis, MO, USA) in polypropylene 96-well plates and initial inoculum 5 × 10^5 cfu/mL were incubated at 37 °C for 18 h. MIC was taken as the lowest drug concentration at which an observable growth was inhibited. […] The loopful (10 µL) of the tested sample was transferred to Tryptic Soy Agar (TSA, Becton-Dickinson, Franklin Lakes, NJ, USA) and incubated at 37 °C for 48 h. […] Drug Solutions were made fresh on the day of the assay. All experiments were performed in triplicate.
A general note: Dilution methods test growth across graded concentrations, often in twofold steps.

The subject of test [2] is Escherichia coli ATCC 11229. The test is described as follows: Broth dilution MIC/MBC, reference strain. As to conditions: for MBC / MIC: Escherichia coli, ATCC11229. How it is done:
as §1, §2, §3

For test [3], the system named is Staphylococcus aureus ATCC 6538 (MSSA). The test is described as follows: Broth dilution MIC/MBC, reference strain. The following applies: for MBC / MIC: Staphylococcus aureus. The method, then:
as §1, §2, §3

For test [4], the system named is Staphylococcus aureus ATCC 43300 (MRSA). The test is described as follows: Broth dilution MIC/MBC, reference strain. As to conditions: for MBC / MIC: Staphylococcus aureus. The method, then: as §1, §2, §3
Test [5] deals with Proteus vulgaris NCTC 4635. The test is described as follows: Broth dilution MIC/MBC, reference strain. As to conditions: for MBC / MIC: Proteus vulgaris, NCTC4635. The method, then:
as §1, §2, §3

In test [6] the test system is Staphylococcus epidermidis PCM 2118. Kind of test: Broth dilution MIC/MBC, reference strain. The following applies: for MIC / MBC: Staphylococcus epidermidis; for MIC: PCM2118; for MBC: PCM2118, S. epidermidis PCM 2118. How it is done: as §1, §2, §3
The test system of test [7] is Pseudomonas aeruginosa ATCC 15442. Kind of test: Broth dilution MIC/MBC, reference strain. The following applies: for MBC / MIC: Pseudomonas aeruginosa, ATCC15442. How it is done:
as §1, §2, §3

Test [8] concerns Candida albicans ATCC 10231. The test is described as follows: Broth dilution MIC/MFC, reference fungal strain. As to conditions: for MFC / MIC: Candida albicans, ATCC10231. How it is done: as §1, §2, §3

Values after ≈ are worked out from the molar mass of the structure shown. Some results are limits rather than exact numbers.

In general, MBC refers to the smallest concentration meeting the test's criterion for killing. Higher therefore signals weaker bactericidal potency. One may read the MIC as the lowest concentration found to suppress growth. Read a high MIC as weaker potency. What is called MFC is the lowest tested concentration that kills the fungus rather than only halting it. Low values mean more potent killing, high ones less potent killing. With `Cc1cc(S(=O)(=O)NC(=O)CCC2CCCCC2)c(SCc2ccccc2)cc1Cl` [Compound 8, N-(2-Benzylthio-4-chloro-5-methylbenzenesulfonyl)-3-cyclohexylpropanamide], the MBC in test [1] is over 128 µg/mL; in test [2] it was over 128 µg/mL; in test [3] it was over 128 µg/mL; in test [4], over 128 µg/mL; in test [5], over 128 µg/mL; in test [6] it was 32 µg/mL (≈ 68.7 µM). This compound also showed an MBC in test [7] of over 128 µg/mL. Further, the minimum inhibitory concentration (MIC) in test [1] was 128 µg/mL (≈ 275 µM); in test [2] it was 128 µg/mL (≈ 275 µM); in test [3], 32 µg/mL (≈ 68.7 µM); in test [4], 16 µg/mL (≈ 34.3 µM); in test [5], 64 µg/mL (≈ 137 µM); in test [6], 8 µg/mL (≈ 17.2 µM). Further, the MIC in test [7] was 128 µg/mL (≈ 275 µM); in test [8] it was 64 µg/mL (≈ 137 µM). The same compound had an MFC in test [8] of 128 µg/mL (≈ 275 µM).

On to `Cc1cc(S(=O)(=O)NC(=O)C=Cc2ccccc2)c(SCc2ccccc2)cc1Cl` [Compound 13, N-{[2-(Benzylthio)-4-chloro-5-methylphenyl]sulfonyl}cinnamamide], for which the MBC/MIC is over 1 in test [1] (E. f. ATCC 11420); over 1 in test [2] (E. c. ATCC 11229); over 4 in test [3] (S. a. ATCC 6538); over 4 in test [4] (S. a. ATCC 43300); over 1 in test [5] (P. v. NCTC 4635); over 4 in test [6] (S. e. PCM 2118). Also, the MBC/MIC in test [7] (P. a. ATCC 15442) is on record as over 1. Besides, the MBC in test [1], in test [2], in test [3], in test [4], in test [5] and in test [6] was over 128 µg/mL throughout. The MBC in test [7] is over 128 µg/mL. Also, the MIC was over 128 µg/mL in test [1]; 128 µg/mL (≈ 279 µM) in test [2]; 32 µg/mL (≈ 69.9 µM) in test [3]; 32 µg/mL (≈ 69.9 µM) in test [4]; 128 µg/mL (≈ 279 µM) in test [5]; 32 µg/mL (≈ 69.9 µM) in test [6]. In addition, the values for the MIC in test [7] and in test [8] were 128 µg/mL (≈ 279 µM) and 64 µg/mL (≈ 140 µM), respectively. Further, the MFC/MIC in test [8] (C. a. ATCC 10231) is 2. The MFC in test [8] came out at 128 µg/mL (≈ 279 µM).
